Test results reported in ChEMBL document CHEMBL3885881, “DrugMatrix”.

Species on record: Rattus norvegicus
Assay: DrugMatrix - Regimen: Daily Repeat
Assay type: toxicity, organism-based, Sprague-Dawley
Design: regimen Daily Repeat, gender Male, age 6-8 weeks
Settings: in vivo, po, 750 mg/kg, route oral GAVAGE, dose level High, vehicle .5 % CMC; for BASOPHIL / EOSINOPHIL / ERYTHROCYTE COUNT / HEMATOCRIT / HEMOGLOBIN / LEUKOCYTE COUNT / LYMPHOCYTE / MEAN CORPUSCULAR HEMOGLOBIN / MEAN CORPUSCULAR HEMOGLOBIN CONCENTRATION / MEAN CORPUSCULAR VOLUME / MONOCYTE / NEUTROPHIL / PLATELET COUNT: tissue Blood; for ALANINE AMINOTRANSFERASE / ALBUMIN / ALKALINE PHOSPHATASE / ASPARTATE AMINOTRANSFERASE / BLOOD UREA NITROGEN / CARBON DIOXIDE / CHLORIDE / CHOLESTEROL / CREATINE PHOSPHOKINASE / CREATININE / GLUCOSE / LACTATE DEHYDROGENASE / LIPASE / PHOSPHORUS / POTASSIUM / SODIUM / TOTAL BILIRUBIN / TOTAL PROTEIN / URIC ACID: tissue Plasma

For `ClC(Cl)(Cl)C(Cl)(Cl)Cl` [HEXACHLOROETHANE], the BASOPHIL (96 h, time 4 day) was 0.3%, the EOSINOPHIL (96 h, time 4 day) was 0.6% and the “ERYTHROCYTE COUNT” value (96 h, time 4 day) was 7.16 x10E6/uL. For the same compound, the HEMATOCRIT (96 h, time 4 day) was 45.77%, the HEMOGLOBIN (96 h, time 4 day) was 14.9 G/DL and the “LEUKOCYTE COUNT” value (96 h, time 4 day) was 12.35 x10E3/uL. The LYMPHOCYTE (96 h, time 4 day) was 79.87%, the “MEAN CORPUSCULAR HEMOGLOBIN” value (96 h, time 4 day) was 20.77 pg and the “MEAN CORPUSCULAR HEMOGLOBIN CONCENTRATION” value (96 h, time 4 day) was 32.5 G/DL. For the same compound, the “MEAN CORPUSCULAR VOLUME” value (96 h, time 4 day) was 63.9 fL, the MONOCYTE (96 h, time 4 day) was 2.47% and the NEUTROPHIL (96 h, time 4 day) was 16.1%. For the same compound, the “PLATELET COUNT” value (96 h, time 4 day) was 1434.33 x10E3/uL, the “ALANINE AMINOTRANSFERASE” value (96 h, time 4 day) was 28 u/L and the ALBUMIN (96 h, time 4 day) was 3.87 G/DL. The “ALKALINE PHOSPHATASE” value (96 h, time 4 day) was 292 u/L, the “ASPARTATE AMINOTRANSFERASE” value (96 h, time 4 day) was 63.67 u/L and the “BLOOD UREA NITROGEN” value (96 h, time 4 day) was 17.67 mg/dL. The “CARBON DIOXIDE” value (96 h, time 4 day) was 21.67 mmol/L, the CHLORIDE (96 h, time 4 day) was 108.33 MEQ/L and the CHOLESTEROL (96 h, time 4 day) was 74.67 mg/dL. For the same compound, the “CREATINE PHOSPHOKINASE” value (96 h, time 4 day) was 242 u/L, the CREATININE (96 h, time 4 day) was 0.43 mg/dL and the GLUCOSE (96 h, time 4 day) was 177 mg/dL. For the same compound, the “LACTATE DEHYDROGENASE” value (96 h, time 4 day) was 82 u/L, the LIPASE (96 h, time 4 day) was 19 u/L and the PHOSPHORUS (96 h, time 4 day) was 11.57 mg/dL. The POTASSIUM (96 h, time 4 day) was 5.67 MEQ/L, the SODIUM (96 h, time 4 day) was 150 MEQ/L and the “TOTAL BILIRUBIN” value (96 h, time 4 day) was 0.23 mg/dL. For the same compound, the “TOTAL PROTEIN” value (96 h, time 4 day) was 6.5 G/DL, the “URIC ACID” value (96 h, time 4 day) was 1.17 mg/dL and the BASOPHIL ([…], time 6 day) was 0.4%. The EOSINOPHIL ([…], time 6 day) was 0.57%, the “ERYTHROCYTE COUNT” value ([…], time 6 day) was 7.65 x10E6/uL and the HEMATOCRIT ([…], time 6 day) was 47.3%. For the same compound, the HEMOGLOBIN ([…], time 6 day) was 15.03 G/DL, the “LEUKOCYTE COUNT” value ([…], time 6 day) was 11.09 x10E3/uL and the LYMPHOCYTE ([…], time 6 day) was 86.53%. For the same compound, the “MEAN CORPUSCULAR HEMOGLOBIN” value ([…], time 6 day) was 19.67 pg, the “MEAN CORPUSCULAR HEMOGLOBIN CONCENTRATION” value ([…], time 6 day) was 31.77 G/DL and the “MEAN CORPUSCULAR VOLUME” value ([…], time 6 day) was 61.9 fL. For the same compound, the MONOCYTE ([…], time 6 day) was 1.6%, the NEUTROPHIL ([…], time 6 day) was 10.43% and the “PLATELET COUNT” value ([…], time 6 day) was 1317.33 x10E3/uL. The BASOPHIL ([…], time 14 day) was 0.38%, the EOSINOPHIL ([…], time 14 day) was 1.98% and the “ERYTHROCYTE COUNT” value ([…], time 14 day) was 8.11 x10E6/uL. The HEMATOCRIT ([…], time 14 day) was 53.9%, the HEMOGLOBIN ([…], time 14 day) was 15.78 G/DL and the “LEUKOCYTE COUNT” value ([…], time 14 day) was 13.93 x10E3/uL. For the same compound, the LYMPHOCYTE ([…], time 14 day) was 77.98%, the “MEAN CORPUSCULAR HEMOGLOBIN” value ([…], time 14 day) was 19.5 pg and the “MEAN CORPUSCULAR HEMOGLOBIN CONCENTRATION” value ([…], time 14 day) was 29.3 G/DL. For the same compound, the “MEAN CORPUSCULAR VOLUME” value ([…], time 14 day) was 66.52 fL, the MONOCYTE ([…], time 14 day) was 1.82% and the NEUTROPHIL ([…], time 14 day) was 17.32%. The “PLATELET COUNT” value ([…], time 14 day) was 1210 x10E3/uL, the “ALANINE AMINOTRANSFERASE” value ([…], time 6 day) was 38.33 u/L and the ALBUMIN ([…], time 6 day) was 3.9 G/DL. The “ALKALINE PHOSPHATASE” value ([…], time 6 day) was 248.33 u/L, the “ASPARTATE AMINOTRANSFERASE” value ([…], time 6 day) was 85.33 u/L and the “BLOOD UREA NITROGEN” value ([…], time 6 day) was 17 mg/dL. For the same compound, the “CARBON DIOXIDE” value ([…], time 6 day) was 24 mmol/L, the CHLORIDE ([…], time 6 day) was 109.67 MEQ/L and the CHOLESTEROL ([…], time 6 day) was 81 mg/dL. The “CREATINE PHOSPHOKINASE” value ([…], time 6 day) was 545 u/L, the CREATININE ([…], time 6 day) was 0.33 mg/dL and the GLUCOSE ([…], time 6 day) was 171.67 mg/dL. The “LACTATE DEHYDROGENASE” value ([…], time 6 day) was 134.33 u/L, the LIPASE ([…], time 6 day) was 4.67 u/L and the PHOSPHORUS ([…], time 6 day) was 12.5 mg/dL. The POTASSIUM ([…], time 6 day) was 7.1 MEQ/L, the SODIUM ([…], time 6 day) was 619.67 MEQ/L and the “TOTAL BILIRUBIN” value ([…], time 6 day) was 0.23 mg/dL. The “TOTAL PROTEIN” value ([…], time 6 day) was 6.6 G/DL, the “URIC ACID” value ([…], time 6 day) was 1.57 mg/dL and the “ALANINE AMINOTRANSFERASE” value ([…], time 14 day) was 49.8 u/L. For the same compound, the ALBUMIN ([…], time 14 day) was 4.38 G/DL, the “ALKALINE PHOSPHATASE” value ([…], time 14 day) was 322.6 u/L and the “ASPARTATE AMINOTRANSFERASE” value ([…], time 14 day) was 75 u/L. For the same compound, the “BLOOD UREA NITROGEN” value ([…], time 14 day) was 15.6 mg/dL, the “CARBON DIOXIDE” value ([…], time 14 day) was 27.6 mmol/L and the CHLORIDE ([…], time 14 day) was 104.8 MEQ/L. For the same compound, the CHOLESTEROL ([…], time 14 day) was 84.4 mg/dL, the “CREATINE PHOSPHOKINASE” value ([…], time 14 day) was 289.2 u/L and the CREATININE ([…], time 14 day) was 0.42 mg/dL. For the same compound, the GLUCOSE ([…], time 14 day) was 153.6 mg/dL, the “LACTATE DEHYDROGENASE” value ([…], time 14 day) was 57.2 u/L and the LIPASE ([…], time 14 day) was 7.2 u/L. It also gave a PHOSPHORUS ([…], time 14 day) of 13.42 mg/dL, a POTASSIUM ([…], time 14 day) of 6.7 MEQ/L and an SODIUM ([…], time 14 day) of 151.4 MEQ/L. For the same compound, the “TOTAL BILIRUBIN” value ([…], time 14 day) was 0.34 mg/dL, the “TOTAL PROTEIN” value ([…], time 14 day) was 7.08 G/DL and the “URIC ACID” value ([…], time 14 day) was 1.5 mg/dL.
